Laboratory results from patent US20080131511A1, “Pharmaceutical Composition for Treatment of Tear and Salivary Fluid Drying” (Astellas Pharma, Inc., priority 2004, published 2008).

Experiments:
Assay type in all cases: in vivo, mouse (male Balb/c)
[1] = system: salivary gland; experiment: Salivary fluid secretion during subcutaneous continuous administration (osmotic pump); conditions: mice; for Salivary fluid: AUC of secreted amount
Procedure: (§1) Male Balb/c mice were used in the test.
(§2) The compound A was dissolved in physiological saline to a concentration of 0.625, 1.25, 2.5, 5.0, 10 or 20 mg/200 μl, and filled each pump (Alzet mini-osmotic pump 2001D, 8 μl/h, 1 day; DURECT Corporation) with about 200 μl portions It means, that is, each pump releases at a rate of 0.025, 0.05, 0.1, 0.2, 0.4 or 0.8 mg compound A/h, respectively. About 5 mm of dorsal epidermis of a mouse anesthetized with diethyl ether was incised, the osmotic pump already filled with the compound A was subcutaneously implanted, and then the skin was stitched. Secreted amounts of salivary and tear fluid and sweating were periodically measured from just before the implantation of pump until 32 hours after the administration. The ornithine decarboxylase activity was measured 10 hours after the implantation.
(§3) Pilocarpine was dissolved in physiological saline to a concentration of 0.039, 0.078, 0.16 or 0.31 mg/200 μl, or cevimeline to a concentration of 0.16, 0.31, 0.63 or 1.3 mg/200 μl, and filled the osmotic pump (Alzet mini-osmotic pump 2001 D, 8 μl/h, 1 day; DURECT Corporation) with about 200 μl portions. It means, that is, each pump releases at a rate of 0.00156, 0.00312, 0.0064 or 0.0124 mg/h (pilocarpine) or 0.0064, 0.0124, 0.0252 or 0.05 mg/h (cevimeline). About 5 mm of dorsal epidermis of a mouse anesthetized with diethyl ether was incised, the osmotic pump already filled with pilocarpine or cevimeline was subcutaneously implanted, and then the skin was stitched. Secreted amounts of salivary and tear fluid and sweating were periodically measured from just before the implantation of pump until 32 hours after the administration. The ornithine decarboxylase activity was measured 10 hours after the implantation.
(§4) The mouth of a mouse was wiped with a cotton ball whose weight had been measured in advance, and the incremental weight was used as the amount of salivary fluid. Also at the same time, a thread for tear fluid measurement (Zone Quick; Menicon) used on the Schirmer test was inserted into the lower eyelid conjunctival sac, and the length of colored part was measured and used as the amount of tear fluid. From the measurement results, area under the secreted amount-versus-time curve (AUC) was calculated.
(§5) All of the test results were expressed as fold increases of the reactions of the drug-administered group versus those of the vehicle-administered group, and comparison between the drug-administered groups and the vehicle-administered group was carried out using Dunnett's t-test. P<0.05 was considered significant. Results

[2] = system: ornithine decarboxylase (ODC) activity of parotid salivary gland; experiment: Ornithine decarboxylase activity of parotid salivary gland after subcutaneous bolus administration; conditions: mice
Procedure: (§6) Male Balb/c mice were used in the test. […] Also, the growth acceleration action was measured 6 hours after the administration. […] Also, the growth acceleration action was measured 6 hours after the administration. […] Thus, it can be easily analogized that the ODC activity becomes a useful index of cell growth and function of the exocrine gland. Accordingly, the ability of each drug to activate glandular tissue was evaluated by measuring ODC activity of parotid salivary gland and extra-orbital lacrimal gland. The amount of ^14CO2 formed from L-^14C-ornithine was used as the index of ODC activity. A mouse anesthetized with diethyl ether was sacrificed by bleeding, and left and right parotid salivary glands and extra-orbital lacrimal glands were isolated. After removing the attached connective tissue and fat, the isolated glandular tissues homogenized in 1.5 ml of a homogenate buffer (25 mM Tris-HCl buffer (pH 7.4) containing 0.1 mM ethylenediaminetetraacetic acid, 0.4 mM pyridoxal phosphate, 5 mM dithiothreitol and 0.1% Brij 35®) using a Potter type homogenizer and then centrifuged at 4° C., 15,000 g for 30 minutes, and the supernatant was used as the enzyme fraction. […] The ^14CO2 generated by the reaction was captured by 150 μl of 1 N NaOH soaked in a glass filter. Radioactivity of the ^14CO2 captured on the glass filter was detected using a liquid scintillation counter. The enzyme activity (pmol ^14CO2/mg protein/hour) was calculated from the measured results. All of the test results were expressed as fold increases of the reactions of the drug-administered group versus those of the vehicle-administered group, and comparison between the drug-administered groups and the vehicle-administered group was carried out using Dunnett's t-test. P<0.05 was considered significant. Results

[3] = system: ornithine decarboxylase (ODC) activity of extra-orbital lacrimal gland; experiment: Ornithine decarboxylase activity of extra-orbital lacrimal gland after subcutaneous bolus administration; conditions: mice
Procedure: as §6

[4] = system: salivary gland; experiment: Salivary fluid secretion after subcutaneous bolus administration; conditions: mice
Procedure: as §1
(§7) The compound A was dissolved in physiological saline to a concentration of 1, 3, 10, 30 or 100 mg/5 ml, and 5 ml/kg of the drug solution was administered under the dorsal skin. Secreted amounts of salivary and tear fluid were measured just before the administration of compound A and 10, 20, 30, 40 and 50 minutes after the administration. The sweating action was measured 10 minutes after the administration. Also, the growth acceleration action was measured 6 hours after the administration.
(§8) Pilocarpine was dissolved in physiological saline to a concentration of 0.03, 0.1, 0.3, 1, 3 or 10 mg/5 ml, or cevimeline to a concentration of 0.3, 1, 3, 10, 30 or 100 mg/5 ml, and 5 ml/kg of the drug solution was administered under the dorsal skin. Secreted amounts of salivary and tear fluid were measured just before the administration of pilocarpine or cevimeline and 10, 20, 30, 40 and 50 minutes after the administration. The sweating action was measured 10 minutes after the administration. Also, the growth acceleration action was measured 6 hours after the administration.
as §4, §5

[5] = system: lacrimal gland; experiment: Tear fluid secretion after subcutaneous bolus administration; conditions: mice
Procedure: as §1, §7, §8, §4, §5

[6] = system: lacrimal gland; experiment: Tear fluid secretion during subcutaneous continuous administration (osmotic pump); conditions: mice, AUC of secreted amount
Procedure: as §1, §2, §3, §4, §5

[7] = s.c. osmotic pump 0.039 mg (0.00156 mg/h)
[8] = s.c. osmotic pump 0.078 mg (0.00312 mg/h)
[9] = s.c. osmotic pump 0.16 mg (0.0064 mg/h)
[10] = s.c. osmotic pump 0.31 mg (0.0124 mg/h)
[11] = s.c. bolus 1 mg/kg, ODC activity 6 hours after administration
[12] = s.c. bolus 3 mg/kg, ODC activity 6 hours after administration
[13] = s.c. bolus 10 mg/kg, ODC activity 6 hours after administration (Table 3)
[14] = s.c. bolus 0.03 mg/kg, 10 minutes after administration
[15] = s.c. bolus 0.1 mg/kg, 10 minutes after administration
[16] = s.c. bolus 0.3 mg/kg, 10 minutes after administration
[17] = s.c. bolus 1 mg/kg, 10 minutes after administration (Table 3)
[18] = s.c. bolus, 10 minutes after administration

With `CC[C@@H]1C(=O)OC[C@@H]1Cc1cncn1C` [pilocarpine] the “dose at which salivary fluid secretion acceleration action reached maximum” value ([1]; s.c. continuous administration) was 0.16 mg, the Salivary fluid [1, 7] was 1.1 ± 0.04 fold increase vs. vehicle group and the Salivary fluid [1, 8] was 1.5 ± 0.08 fold increase vs. vehicle group. The Salivary fluid [1, 9] was 2.9 ± 0.14 fold increase vs. vehicle group, the Salivary fluid [1, 10] was 2.8 ± 0.24 fold increase vs. vehicle group and the “Glandular cell growth Salivary gland” value [2, 11] was 1.4 ± 0.48 fold increase vs. the vehicle group. The “Glandular cell growth Salivary gland” value [2, 12] was 1.3 ± 0.54 fold increase vs. the vehicle group, the “Glandular cell growth Salivary gland” value [2, 13] was 3.2 ± 1.1 fold increase vs. the vehicle group and the “Glandular cell growth Lacrimal gland” value [3, 11] was 0.69 ± 0.09 fold increase vs. the vehicle group. The “Glandular cell growth Lacrimal gland” value [3, 12] was 0.95 ± 0.23 fold increase vs. the vehicle group, the “Glandular cell growth Lacrimal gland” value [3, 13] was 2.8 ± 0.61 fold increase vs. the vehicle group and the Salivary fluid [4, 14] was 1.2 ± 0.15 fold increase vs. the vehicle group. For the same compound, the Salivary fluid [4, 15] was 1.8 ± 0.23 fold increase vs. the vehicle group, the Salivary fluid [4, 16] was 1.7 ± 0.15 fold increase vs. the vehicle group and the Salivary fluid [4, 17] was 2.0 ± 0.18 fold increase vs. the vehicle group. The “dose at which statistically significant acceleration of salivary fluid secretion was attained” value [4, 18] was 0.1 mg/kg, the “time after administration at which secretion amount of salivary and tear fluid reached maximum” value ([4]; s.c. bolus, every dose) was 10 min and the Tear fluid [5, 14] was 0.65 ± 0.19 fold increase vs. the vehicle group. The Tear fluid [5, 15] was 0.80 ± 0.24 fold increase vs. the vehicle group, the Tear fluid [5, 16] was 1.1 ± 0.14 fold increase vs. the vehicle group and the Tear fluid [5, 17] was 2.7 ± 0.40 fold increase vs. the vehicle group. The “dose at which statistically significant acceleration of tear fluid secretion was attained” value [5, 18] was 1 mg/kg, the Tear fluid [6, 7] was 0.81 ± 0.02 fold increase vs. vehicle group and the Tear fluid [6, 8] was 1.1 ± 0.13 fold increase vs. vehicle group. The Tear fluid [6, 9] was 1.1 ± 0.14 fold increase vs. vehicle group and the Tear fluid [6, 10] was 1.1 ± 0.12 fold increase vs. vehicle group.
